# Target: T1, human PAH with the R408W mutation (A375 R408W cells) (Homo sapiens, UniProt P00439, R408W)
# T1 construct: expressed in transfected cells
# T1 sequence (P00439 1-452 R408W): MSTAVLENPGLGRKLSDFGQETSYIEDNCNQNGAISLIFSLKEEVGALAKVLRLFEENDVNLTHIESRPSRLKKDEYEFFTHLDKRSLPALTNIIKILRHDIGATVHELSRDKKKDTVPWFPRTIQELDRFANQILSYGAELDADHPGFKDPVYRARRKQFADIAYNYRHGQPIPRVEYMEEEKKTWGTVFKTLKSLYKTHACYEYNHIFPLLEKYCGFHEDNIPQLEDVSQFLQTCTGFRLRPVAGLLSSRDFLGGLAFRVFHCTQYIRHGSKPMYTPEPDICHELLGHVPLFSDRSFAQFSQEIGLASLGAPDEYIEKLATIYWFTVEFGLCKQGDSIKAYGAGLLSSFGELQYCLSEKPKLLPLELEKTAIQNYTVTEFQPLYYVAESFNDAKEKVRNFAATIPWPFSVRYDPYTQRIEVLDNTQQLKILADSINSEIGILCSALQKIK
# Test: Cell Based Phenylalanine Flux Assay
# Details: A375 R408W cells; 24 hrs with compound, then 20 μM sepiapterin and 800 μM 13C9,15N-Phenylalanine for 4 hours; 13C-Tyrosine by LC-MS; average where tested multiple times
# Summary of the method: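 Puromycin-selected A375 line, lentiviral hPAH R408W; cmpd 24 h, 37 °C, 5% CO2, 0.5% DMSO; then 20 μM sepiapterin + 800 μM 13C9,15N-Phe, 4 h; media extracted in 80% MeCN; 13C-Tyr by LC-MS; AC50 from 10-pt curves.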
row,AC50 [nM],SMILES
1,1000 to 5000,"O=C(c1cnn2cc(N3CCC(O)CC3)ccc12)N1CCc2[nH]cnc2[C@H]1c1nc2c(F)ccc(F)c2o1 [Example 895, (S)-(4-(4,7-difluorobenzo[d]oxazol-2-yl)-6,7-dihydro-1H-imidazo[4,5-c]pyridin-5(4H)-yl)(6-(4-hydroxypiperidin-1-yl)pyrazolo[1,5-a]pyridin-3-yl)methanone]"
2,≤ 500,"O=C(c1ocnc1C(F)F)N1CCc2[nH]cnc2[C@H]1c1nc2cccc(F)c2o1 [Example 173, (S)-(4-(difluoromethyl)oxazol-5-yl)(4-(7-fluorobenzo[d]oxazol-2-yl)-6,7-dihydro-1H-imidazo[4,5-c]pyridin-5(4H)-yl)methanone]"
3,1000 to 5000,"O=C(c1nnc(-c2ccccn2)o1)N1Cc2[nH]cnc2[C@@H]1c1nc2ccccc2o1 [Example 938, (R)-(4-(benzo[d]oxazol-2-yl)-4,6-dihydropyrrolo[3,4-d]imidazol-5(1H)-yl)(5-(pyridin-2-yl)-1,3,4-oxadiazol-2-yl)methanone]"
4,500 to 1000,"O=C(c1nnc(-c2ccn(C(F)F)n2)o1)N1CCc2[nH]cnc2[C@@H]1c1nc2cccc(F)c2o1 [Example 861, (R)-(5-(1-(difluoromethyl)-1H-pyrazol-3-yl)-1,3,4-oxadiazol-2-yl)(4-(7-fluorobenzo[d]oxazol-2-yl)-6,7-dihydro-1H-imidazo[4,5-c]pyridin-5(4H)-yl)methanone]"
5,1000 to 5000,"O=C(c1cnn2cc(-c3ccccn3)ccc12)N1CCc2[nH]cnc2[C@@H]1c1nc2c(F)cccc2o1 [Example 544, (R)-(4-(4-fluorobenzo[d]oxazol-2-yl)-6,7-dihydro-1H-imidazo[4,5-c]pyridin-5(4H)-yl)(6-(pyridin-2-yl)pyrazolo[1,5-a]pyridin-3-yl)methanone]"
6,1000 to 5000,"CC(O)c1nc(Cl)c(C(=O)N2CCc3[nH]cnc3[C@H]2c2nc3cc(F)ccc3o2)o1 (single isomer, unassigned) [Example 235]"
7,1000 to 5000,"Cc1nc(C(=O)N2CCc3[nH]cnc3[C@H]2c2nc3cccc(F)c3o2)n(C)n1 [Example 495, (S)-(1,3-dimethyl-1H-1,2,4-triazol-5-yl)(4-(7-fluorobenzo[d]oxazol-2-yl)-6,7-dihydro-1H-imidazo[4,5-c]pyridin-5(4H)-yl)methanone]"
8,500 to 1000,"Cc1ccc2nc([C@H]3c4nc[nH]c4CCN3C(=O)c3ccnn3C(F)F)oc2c1 [Example 318, (R)-(1-(difluoromethyl)-1H-pyrazol-5-yl)(4-(6-methylbenzo[d]oxazol-2-yl)-6,7-dihydro-1H-imidazo[4,5-c]pyridin-5(4H)-yl)methanone]"
9,1000 to 5000,"Cc1nn(C)cc1-c1nnc(C(=O)N2CCc3[nH]cnc3[C@H]2c2nc3cc(F)ccc3o2)o1 [Example 881, (S)-(5-(1,3-dimethyl-1H-pyrazol-4-yl)-1,3,4-oxadiazol-2-yl)(4-(5-fluorobenzo[d]oxazol-2-yl)-6,7-dihydro-1H-imidazo[4,5-c]pyridin-5(4H)-yl)methanone]"
10,≤ 500,"O=C(c1ocnc1C(F)F)N1CCc2[nH]cnc2[C@@H]1c1nc2cc(C(F)(F)F)ccc2o1 [Example 330, (R)-(4-(difluoromethyl)oxazol-5-yl)(4-(5-(trifluoromethyl)benzo[d]oxazol-2-yl)-6,7-dihydro-1H-imidazo[4,5-c]pyridin-5(4H)-yl)methanone]"
11,≤ 500,"O=C(c1oc(-c2ccncn2)nc1C(F)F)N1CCc2[nH]cnc2[C@H]1c1nc2cc(F)ccc2o1 [Example 526, (S)-(4-(difluoromethyl)-2-(pyrimidin-4-yl)oxazol-5-yl)(4-(5-fluorobenzo[d]oxazol-2-yl)-6,7-dihydro-1H-imidazo[4,5-c]pyridin-5(4H)-yl)methanone]"
12,≤ 500,"COc1ccc2oc([C@@H]3c4nc[nH]c4CCN3C(=O)c3ocnc3C(F)F)nc2c1 [Example 341, (S)-(4-(difluoromethyl)oxazol-5-yl)(4-(5-methoxybenzo[d]oxazol-2-yl)-6,7-dihydro-1H-imidazo[4,5-c]pyridin-5(4H)-yl)methanone]"
13,≤ 500,"O=C(c1oc(-c2ccncc2)nc1C(F)F)N1CCc2[nH]cnc2[C@@H]1c1nc2cccc(F)c2o1 [Example 559, (R)-(4-(difluoromethyl)-2-(pyridin-4-yl)oxazol-5-yl)(4-(7-fluorobenzo[d]oxazol-2-yl)-6,7-dihydro-1H-imidazo[4,5-c]pyridin-5(4H)-yl)methanone]"
14,≤ 500,"CC(C)(O)c1nc(C(F)F)c(C(=O)N2CCc3[nH]cnc3[C@@H]2c2nc3cc(Cl)cc(F)c3o2)o1 [Example 606, (R)-(4-(5-chloro-7-fluorobenzo[d]oxazol-2-yl)-6,7-dihydro-1H-imidazo[4,5-c]pyridin-5(4H)-yl)(4-(difluoromethyl)-2-(2-hydroxypropan-2-yl)oxazol-5-yl)methanone]"
15,1000 to 5000,"Cc1cccc2nc([C@H]3c4nc[nH]c4CCN3C(=O)c3nnc(-c4cnn(C)c4)o3)oc12 [Example 566, (R)-(5-(1-methyl-1H-pyrazol-4-yl)-1,3,4-oxadiazol-2-yl)(4-(7-methylbenzo[d]oxazol-2-yl)-6,7-dihydro-1H-imidazo[4,5-c]pyridin-5(4H)-yl)methanone]"
16,≤ 500,"O=C(c1oc(-c2ccccn2)nc1C(F)F)N1CCc2[nH]cnc2[C@H]1c1nc2cc(F)ccc2o1 [Example 85, (S)-(4-(difluoromethyl)-2-(pyridin-2-yl)oxazol-5-yl)(4-(5-fluorobenzo[d]oxazol-2-yl)-6,7-dihydro-1H-imidazo[4,5-c]pyridin-5(4H)-yl)methanone]"
17,≤ 500,"Cc1cc(F)c2oc([C@H]3c4nc[nH]c4CCN3C(=O)c3oc(C(C)(C)O)nc3C(F)F)nc2c1 [Example 500, (R)-(4-(difluoromethyl)-2-(2-hydroxypropan-2-yl)oxazol-5-yl)(4-(7-fluoro-5-methylbenzo[d]oxazol-2-yl)-6,7-dihydro-1H-imidazo[4,5-c]pyridin-5(4H)-yl)methanone]"
18,≤ 500,"CC(C)(O)c1nc(Br)c(C(=O)N2CCc3[nH]cnc3[C@H]2c2nc3c(F)cccc3o2)o1 [Example 252, (S)-(4-bromo-2-(2-hydroxypropan-2-yl)oxazol-5-yl)(4-(4-fluorobenzo[d]oxazol-2-yl)-6,7-dihydro-1H-imidazo[4,5-c]pyridin-5(4H)-yl)methanone]"
19,1000 to 5000,"Cc1ccc2oc([C@H]3c4nc[nH]c4CCN3C(=O)c3oc(C(C)(C)O)nc3C)nc2c1 [Example 332, (R)-(2-(2-hydroxypropan-2-yl)-4-methyloxazol-5-yl)(4-(5-methylbenzo[d]oxazol-2-yl)-6,7-dihydro-1H-imidazo[4,5-c]pyridin-5(4H)-yl)methanone]"
20,1000 to 5000,"Cn1cc(-c2nc(C(F)F)c(C(=O)N3CCc4[nH]cnc4[C@@H]3c3nc4cc(F)ccc4o3)o2)cn1 [Example 87, (R)-(4-(difluoromethyl)-2-(1-methyl-1H-pyrazol-4-yl)oxazol-5-yl)(4-(5-fluorobenzo[d]oxazol-2-yl)-6,7-dihydro-1H-imidazo[4,5-c]pyridin-5(4H)-yl)methanone]"
21,1000 to 5000,"CC(C)(O)c1nc(C(F)F)c(C(=O)N2CCc3[nH]cnc3[C@@H]2c2nc3ccc(F)cc3o2)o1 [Example 188, (R)-(4-(difluoromethyl)-2-(2-hydroxypropan-2-yl)oxazol-5-yl)(4-(6-fluorobenzo[d]oxazol-2-yl)-6,7-dihydro-1H-imidazo[4,5-c]pyridin-5(4H)-yl)methanone]"
22,500 to 1000,"O=C(c1ocnc1C(F)F)N1CCc2[nH]cnc2[C@@H]1c1nc2c(F)c(F)ccc2o1 [Example 349, (R)-(4-(4,5-difluorobenzo[d]oxazol-2-yl)-6,7-dihydro-1H-imidazo[4,5-c]pyridin-5(4H)-yl)(4-(difluoromethyl)oxazol-5-yl)methanone]"
23,≤ 500,"O=C(c1oc(-c2ccncc2)nc1C(F)F)N1CCc2[nH]cnc2[C@H]1c1nc2cccc(F)c2o1 [Example 560, (S)-(4-(difluoromethyl)-2-(pyridin-4-yl)oxazol-5-yl)(4-(7-fluorobenzo[d]oxazol-2-yl)-6,7-dihydro-1H-imidazo[4,5-c]pyridin-5(4H)-yl)methanone]"

# Same assay, conditions: A375 cells expressing R408W PAH; 24 hrs with compound, then 20 μM sepiapterin and 800 μM 13C9,15N-Phenylalanine for 4 hours; 13C-Tyrosine by LC-MS; average where tested multiple times
row,AC50 [nM],SMILES
1,1000 to 5000,Cn1cncc1-c1nnc(C(=O)N2CCc3[nH]cnc3C2c2nc3c(F)ccc(F)c3o2)o1 (stereo not drawn)
2,1000 to 5000,O=C(c1nncn1C1CC1)N1CCc2[nH]cnc2C1c1nc2c(F)cccc2o1 (stereo not drawn)
3,1000 to 5000,O=C(c1ccn(-c2ccccn2)n1)N1CCc2[nH]cnc2C1c1nc2cccc(F)c2o1 (stereo not drawn)
4,1000 to 5000,O=C(CCc1ncco1)N1CCc2[nH]cnc2C1c1nc2cc(F)ccc2o1 (stereo not drawn)
5,≥ 5000,CN(C)Cc1ncc(C(=O)N2CCc3[nH]cnc3C2c2nc3cc(F)ccc3o2)o1 (stereo not drawn)
6,≥ 5000,N#Cc1nc(N2CCC(F)CC2)oc1C(=O)N1CCc2[nH]cnc2C1c1nc2cc(F)ccc2o1 (stereo not drawn)
7,≥ 5000,Cc1nc(C(C)O)oc1C(=O)N1CCc2[nH]cnc2C1c1nc2ccc(F)cc2o1 (stereo not drawn)
8,≥ 5000,Cc1ccc2nc(C3c4nc[nH]c4CCN3C(=O)c3cncs3)oc2c1 (stereo not drawn)
9,≥ 5000,O=C(c1cnn2cc(CCN3CC(F)C3)ccc12)N1CCc2[nH]cnc2C1c1nc2cc(F)ccc2o1 (stereo not drawn)
10,1000 to 5000,Cc1ccc2nc(C3c4nc[nH]c4CCN3C(=O)c3nnc(-c4ccc(F)cn4)o3)oc2c1 (stereo not drawn)

# From patent publication US20250171437A1 (Agios Pharmaceuticals,Inc., priority 2022, published 2025)
